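A five-concentration, 48-hour dose response in 96-well plates underlies each endpoint, interpolated linearly between surrounding concentrations. The concentration for 50% growth inhibition is given as GI50. TGI is the concentration that stops growth completely.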
What was measured:
Assay in all cases: NCI anticancer screen, dose series, 48 h
CAKI-1 renal = test system: CAKI-1 renal
EKVX NSCLC = test system: EKVX NSCLC
NCI-H23 lung = test system: NCI-H23 lung
OVCAR-3 ovarian = test system: OVCAR-3 ovarian
SF-268 CNS = test system: SF-268 CNS
SNB-19 CNS = test system: SNB-19 CNS
SR leukemia = test system: SR leukemia
TK-10 renal = test system: TK-10 renal
UO-31 renal = test system: UO-31 renal
LOX IMVI melanoma = test system: LOX IMVI melanoma

SMILES | TGI (CAKI-1 renal) [µM] | TGI (EKVX NSCLC) [µM] | TGI (NCI-H23 lung) [µM] | TGI (OVCAR-3 ovarian) [µM] | TGI (SF-268 CNS) [µM] | TGI (SNB-19 CNS) [µM] | TGI (SR leukemia) [µM] | TGI (TK-10 renal) [µM] | TGI (UO-31 renal) [µM] | GI50 (CAKI-1 renal) [µM] | GI50 (EKVX NSCLC) [µM] | GI50 (LOX IMVI melanoma) [µM] | TGI (LOX IMVI melanoma) [µM] | GI50 (NCI-H23 lung) [µM] | GI50 (OVCAR-3 ovarian) [µM] | GI50 (SF-268 CNS) [µM] | GI50 (SNB-19 CNS) [µM] | GI50 (TK-10 renal) [µM] | GI50 (UO-31 renal) [µM] | GI50 (SR leukemia) [µM]
NNc1ncnc2cccc(Cl)c12 | > 100 | 32 | > 100 | > 100 | > 100 | > 100 | > 100 | > 100 | > 100 |  |  |  |  |  |  |  |  |  |  | 
CCCCC1N=CNc2c1ccc1c2[nH]c2ccccc21 (centres undefined) | 9.16 | 21.6 | 11 | 12.2 | 29.4 | 24.9 | 4.66 | 10.9 | 21.9 |  |  |  |  |  |  |  |  |  |  | 
Cn1cc(-c2ccc3nnc(C(F)(F)c4ccc5ncccc5c4)n3n2)cn1 | > 100 | > 100 | > 100 | > 100 | > 100 | > 100 |  | > 100 | > 100 | 31.4 | > 83.3 | 55.5 | > 100 | 66 | 80.5 | 50.7 | 53.4 | 32.1 | 28.4 | 
O=C(O)CCCc1cc2c(s1)-c1cccc3cccc-2c13 | > 100 |  | 41.2 | 49.5 | > 100 | > 100 | 56.9 | > 100 | 43.4 |  |  |  | 52 |  |  |  |  |  |  | 
C[C@H]1CCC2C(CN3CCCCC3)C(=O)OC2[C@]2(C)C(=O)CC(N3CCCCC3)C12O (some centres undefined) | 97.9 | 16.1 | 25.9 | 14.7 | 44.8 | 73 | 15.8 | 34.3 | 27.9 |  |  |  |  |  |  |  |  |  |  | 
CSc1nc(SC)c2c(C)cn(C3OC(C)C(O)C(O)C3O)c2n1 (centres undefined) |  | > 100 | > 100 | > 100 | > 100 | > 100 | > 100 | > 100 | > 100 |  |  |  | > 100 |  |  |  |  |  |  | 
Cc1cc(C)c(C2=NO[C@@H]3C(=O)N(c4ccc(Cc5ccc(N6C(=O)[C@H]7C(c8c(C)cc(C)cc8C)=NO[C@H]7C6=O)cc5)cc4)C(=O)[C@H]23)c(C)c1 | > 100 | > 100 | > 100 | > 100 | > 100 |  |  | > 100 | > 100 |  |  |  | > 100 |  |  |  |  |  |  | 
Cn1c(=O)c(-c2c(Cl)cccc2Cl)cc2cnc(Nc3ccc(I)cc3)nc21 |  |  | 0.469 | 0.064 |  | > 100 | < 0.01 | 2.12 | 8.28 | < 0.0247 |  | 0.271 | 1.12 | 0.065 | 0.0158 |  | 0.625 | 0.459 | 2.44 | < 0.01
O=C(O)c1ccccc1C1c2ccc(Cl)cc2Oc2cc(Cl)ccc21 | > 100 | > 100 | > 100 | > 100 | > 100 | > 100 |  | > 100 | > 100 |  |  |  | > 100 |  |  |  |  |  |  | 
C=C1CCC2(C(C)=O)COC1(C)O2 (centres undefined) |  | > 100 | > 10 | > 100 |  | > 100 |  | > 100 | > 100 |  |  |  | > 100 |  |  |  |  |  |  | 
O=C(CC1(O)C(=O)Nc2ccc([N+](=O)[O-])cc21)c1ccc(Br)cc1 (centres undefined) |  | > 100 | > 100 | > 100 | > 100 | > 100 |  | 69.5 | > 100 |  |  |  | > 100 |  |  |  |  |  |  | 
O=[N+]([O-])c1cccc([I+]c2ccccc2)c1 | 49 |  | 31.2 | 26.8 | 21.2 | 26.5 | 25.9 |  | 85.5 | 3.42 |  | 6.21 | 20.1 | 10.9 | 11.3 | 7.3 | 13.4 |  | 8.71 | 3.16
CC(C)OC(=O)c1cccnc1/C=N/O | > 100 | > 100 | > 100 | > 100 | > 100 | > 100 |  | > 100 | > 100 |  |  |  | > 100 |  |  |  |  |  |  | 
COc1cc2oc(-c3ccc(O)cc3)cc(=O)c2c(OC)c1O | > 100 | > 100 | > 100 | > 100 | > 100 | > 100 |  | > 100 | > 100 |  |  |  | > 100 |  |  |  |  |  |  | 
O=C(NCCCl)NCc1ccccc1 | > 100 | > 100 | > 100 | > 100 | > 100 | > 100 | > 100 |  | > 100 |  |  |  | > 100 |  |  |  |  |  |  | 
O=c1sc(-c2nc3ccccc3[nH]2)c(/N=C/c2ccccc2)n1-c1ccccc1 | > 100 | > 100 | > 100 | 65.6 | > 100 | > 100 |  | > 100 | > 100 |  |  |  | > 100 |  |  |  |  |  |  | 
CN(CC1NCCCC1O)C12CC3CC(CC(C3)C1)C2 (centres undefined) | > 100 | > 100 | > 100 | > 100 | > 100 | > 100 |  | > 100 | > 100 |  |  |  | > 100 |  |  |  |  |  |  | 
Cc1cc2c(C)nn(Cc3ccccc3Cl)c2c(C#N)c1C |  | > 100 | > 100 | > 100 | > 100 | > 100 | > 100 | > 100 | > 100 |  |  |  | > 100 |  |  |  |  |  |  | 
COc1cc(/C=C2\CC3C4CCC5=CC(=O)CC[C@]5(C)C4CC[C@]3(C)C2=O)ccc1OCCN1CCCCC1 (some centres undefined) | 5.89 | 21.8 | 25.7 | 4.59 | 16.4 | 31 |  | 6.96 | > 100 | 2.29 | 6.3 | 1.42 | 3.3 | 5.33 | 1.83 | 4.72 | 6.16 | 2.45 | 7.87 | 
CN(CCCCN)c1ccc2c(=O)[nH][nH]c(=O)c2c1 | > 100 | > 100 | 5.1 | > 100 | > 100 |  |  | > 100 | > 100 |  |  |  | > 100 |  |  |  |  |  |  | 
Cc1nc(-n2nc(-c3ccccc3)cc2-c2ccccc2)sc1C(/C=C/c1ccc([N+](=O)[O-])cc1)=N/NC(N)=S | > 100 | > 100 | > 100 | > 100 | > 100 | > 100 |  | > 100 | > 100 |  |  |  |  |  |  |  |  |  |  | 

— PubChem BioAssay (NCI)
